Experimental data as given in patent publication US10227331B2 (priority 2015, dated 2019).

Tests used:
[1] = test system: Klebsiella pneumoniae expressing VIM-1 (IHMA599644); assay type: cell-based; details: with imipenem 1 μg/ml, 95% inhibition of bacterial growth; for Klebsiella pneumoniae MITC95: VIM-1 (IHMA599644)
Procedure, shortened: (§1)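 Restoration of imipenem susceptibility (1 μg/ml imipenem) was judged by absorbance after 22–24 h at 35° C. Test compound was added to bacteria suspended 1:100 in 1.1× CAMHB from overnight blood-agar cultures.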

[2] = test system: Escherichia coli expressing NDM-1 (CLB30005, CLB30016); assay type: cell-based; details: with imipenem 1 μg/ml, 95% inhibition of bacterial growth; for Escherichia coli MITC95: NDM-1 (CLB30016)
Procedure, shortened: as §1

[3] = test system: Serratia marcescens expressing IMP-1 (CL5741); assay type: cell-based; details: with imipenem 1 μg/ml, 95% inhibition of bacterial growth; for Serratia marcescens MITC95: IMP-1 (CL5741)
Procedure, shortened: as §1

[4] = test system: P. aeruginosa expressing IMP-1, efflux+ (MB9798); assay type: cell-based, Pseudomonas aeruginosa; details: for P. aeruginosa expressing IMP-1, efflux+ (MB9798) MITC95: imipenem at 2 μg/mL, in the presence of a class A, C, D serine β-lactamase inhibitor closely related to relebactam; for Efflux ratio: ratio MITC95 PA_9798/MITC95 PA_9799
Source text: (§2) The strain background is Pseudomonas aeruginosa PAO1.

VIM-1 = VIM-1 (Pseudomonas aeruginosa (strain ATCC 15692 / DSM 22644 / CIP 104116 / JCM 14847 / LMG 12228 / 1C / PRS 101 / PAO1), UniProt A0A0F7KYQ8); test: biochemical; details: CCF2-FA substrate, 2 hours at 25° C
Procedure, shortened: (§3)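 Enzyme activity was measured by fluorescence using CCF2-FA, a cephalosporin-linked 7-hydroxycoumarin/fluorescein substrate, with inhibitor, metallo-β-lactamase and substrate incubated together for 2 hours at 25° C. IC50 came from a 4-parameter fit of inhibition versus log inhibitor concentration.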

[5] = test system: P. aeruginosa expressing IMP-1, efflux− (MB9799); test: Efflux: concentration of MBL inhibitor which restores susceptibility to imipenem; assay type: cell-based, Pseudomonas aeruginosa; details: imipenem at 2 μg/mL, in the presence of a class A, C, D serine β-lactamase inhibitor closely related to relebactam
Source text: as §2

NDM-1 = NDM-1 (Klebsiella pneumoniae, UniProt C7C422); test: biochemical; assay type: biochemical; details: CCF2-FA substrate, 2 hours at 25° C; read-out: NDM-1 IC50
Procedure, shortened: as §3

IMP-1 = IMP-1 (Serratia marcescens, UniProt P52699); test: biochemical; assay type: biochemical; details: CCF2-FA substrate, 2 hours at 25° C; read-out: IMP-1 IC50
Procedure, shortened: as §3

Chain of NDM-1 (C7C422 whole entry, looked up, species assumed): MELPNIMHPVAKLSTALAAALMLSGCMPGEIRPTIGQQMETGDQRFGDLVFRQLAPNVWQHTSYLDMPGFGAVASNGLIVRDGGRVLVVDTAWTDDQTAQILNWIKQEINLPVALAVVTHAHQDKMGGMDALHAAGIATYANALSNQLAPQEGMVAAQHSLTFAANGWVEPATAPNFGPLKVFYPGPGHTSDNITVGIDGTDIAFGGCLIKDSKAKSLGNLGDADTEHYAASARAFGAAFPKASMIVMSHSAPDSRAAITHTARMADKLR
Chain of IMP-1 (P52699 whole entry, looked up, species assumed): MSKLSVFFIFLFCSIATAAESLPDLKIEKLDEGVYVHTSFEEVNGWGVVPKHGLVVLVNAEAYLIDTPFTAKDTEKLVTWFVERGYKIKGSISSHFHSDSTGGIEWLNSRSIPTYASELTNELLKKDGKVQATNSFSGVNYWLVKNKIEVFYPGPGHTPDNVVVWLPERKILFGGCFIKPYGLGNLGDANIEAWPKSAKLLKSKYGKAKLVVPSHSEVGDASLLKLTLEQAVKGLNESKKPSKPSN

SMILES | Klebsiella pneumoniae MITC95 [1] | Escherichia coli MITC95 [2] | Serratia marcescens MITC95 [3] | P. aeruginosa expressing IMP-1, efflux+ (MB9798) MITC95 [4] | Efflux ratio [4] | IC50 (VIM-1) | P. aeruginosa expressing IMP-1, efflux− (MB9799) MITC95 [5] | IC50 (NDM-1) | IC50 (IMP-1) | Klebsiella pneumoniae expressing VIM-1 (IHMA599644) MITC95 [1] | Escherichia coli expressing NDM-1 (CLB30016) MITC95 [2] | Serratia marcescens expressing IMP-1 (CL5741) MITC95 [3]
NCCS(=O)(=O)c1ccc(-c2cnc(N)c(C(N)=O)c2)c(-c2nn[nH]n2)c1S(N)(=O)=O [Example 335, 2-Amino-5-(4-((2-aminoethyl)sulfonyl)-3-sulfamoyl-2-(2H-tetrazol-5-yl)phenyl)nicotinamide] | 3.125 µM | 1.563 µM | 1.563 µM | 12.5 µM | 8.00 | 1.23 nM | 1.563 µM | 3.22 nM | 8.9 nM |  |  | 
Nc1nc2c(-c3ccc(S(=O)(=O)C[C@H](N)CO)c(S(N)(=O)=O)c3-c3nn[nH]n3)cccc2[nH]1 [Example 273, 3-(2-amino-1H-benzo[d]imidazol-4-yl)-6-((R)-2-amino-3-hydroxypropylsulfonyl)-2-(2H-tetrazol-5-yl)benzenesulfonamide] | 1.563 µM | 0.3906 µM | 1.563 µM | 0.7813 µM | 1.00 | 0.254 nM | 0.7813 µM | 0.147 nM | 0.709 nM |  |  | 
Cn1c(N)nc2c(-c3ccc(S(=O)(=O)C[C@H](O)CN)c(S(N)(=O)=O)c3-c3nn[nH]n3)cccc21 [Example 362, (R)-3-(2-amino-1-methyl-1H-benzo[d]imidazol-4-yl)-6-((3-amino-2-hydroxypropyl)sulfonyl)-2-(2H-tetrazol-5-yl) benzenesulfonamide] | 1.563 µM | 0.3906 µM | 0.7813 µM | 0.7813 µM | 1.00 | 0.605 nM | 0.7813 µM | 0.295 nM | 0.408 nM |  |  | 
Nc1nc2c(-c3ccc(S(=O)(=O)[C@H]4CN[C@H](CO)C4)c(S(N)(=O)=O)c3-c3nn[nH]n3)cccc2[nH]1 [Example 291, 3-(2-amino-1H-benzo[d]imidazol-4-yl)-6-((3R,5S)-5-(hydroxymethyl)pyrrolidin-3-ylsulfonyl)-2-(2H-tetrazol-5-yl)benzenesulfonamide] | 1.563 µM | 0.7813 µM | 0.7813 µM | 0.7813 µM | 1.00 | 0.54 nM | 0.7813 µM | 0.195 nM | 0.959 nM |  |  | 
Nc1nc2c(-c3ccc([S+]([O-])C4CNC4)c(S(N)(=O)=O)c3-c3nn[nH]n3)cccc2[nH]1 (stereo not drawn) [Example 13, 3-(2-amino-1H-benzo[d]imidazol-4-yl)-6-(azetidin-3-ylsulfinyl)-2-(2H-tetrazol-5-yl)benzenesulfonamide] |  |  |  | 6.25 µM | 4.00 | 6.61 nM | 1.563 µM | 0.619 nM | 50.8 nM | 1.563 µM | 0.3906 µM | 3.125 µM
NS(=O)(=O)c1c(S(=O)(=O)C2CNC2)ccc(-c2cncc3[nH]c(=O)[nH]c23)c1-c1nnn[nH]1 [Example 301, 6-(azetidin-3-ylsulfonyl)-3-(2-oxo-2,3-dihydro-1H-imidazo[4,5-c]pyridin-7-yl)-2-(1H-tetrazol-5-yl)benzenesulfonamide] | 6.25 µM | 0.7813 µM | 3.125 µM | 3.125 µM | 2.00 | 0.96 nM | 1.563 µM | 0.536 nM | 2.87 nM |  |  | 
NCCS(=O)(=O)c1ccc(-c2ccc3[nH]c(N)nc3c2)c(-c2nn[nH]n2)c1S(N)(=O)=O [Example 69, 3-(2-amino-1H-benzo[d]imidazol-5-yl)-6-(2-aminoethylsulfonyl)-2-(2H-tetrazol-5-yl)benzenesulfonamide] |  |  |  | 3.125 µM | 7.02 | 0.485 nM | 0.4453 µM | 1.25 nM | 2.77 nM | 0.8906 µM | 0.25 µM | 0.4453 µM
Nc1nc2cccc(-c3ccc(S(=O)(=O)[C@H]4CC[C@@H](N)CC4)c(S(N)(=O)=O)c3-c3nn[nH]n3)c2[nH]1 [Example 177, 3-(2-amino-3H-benzo[d]imidazol-4-yl)-6-((1s,4s)-4-aminocyclohexylsulfonyl)-2-(2H-tetrazol-5-yl)benzenesulfonamide] |  |  |  | 0.7813 µM | 1.00 | 0.293 nM | 0.7813 µM | 0.264 nM | 1.35 nM | 1.563 µM | 0.7813 µM | 0.7813 µM
NS(=O)(=O)c1c(S(=O)(=O)C2CCNCC2)ccc([C@H]2CC[C@H](N)CC2)c1-c1nnn[nH]1 [Example 207, 3-((1r,4r)-4-aminocyclohexyl)-6-(piperidin-4-ylsulfonyl)-2-(1H-tetrazol-5-yl) benzenesulfonamide] |  |  |  | 3.125 µM | 2.00 | 0.71 nM | 1.563 µM | 15.9 nM | 24.6 nM | 3.125 µM | 2.344 µM | 3.125 µM
Cc1nc2c(-c3ccc(S(=O)(=O)CCN)c(S(N)(=O)=O)c3-c3nn[nH]n3)cccc2[nH]1 [Example 331, 6-((2-aminoethyl)sulfonyl)-3-(2-methyl-1H-benzo[d]imidazol-4-yl)-2-(2H-tetrazol-5-yl) benzenesulfonamide] | 6.25 µM | 3.125 µM | 1.563 µM | 1.563 µM | 1.00 | 0.183 nM | 1.563 µM | 0.165 nM | 0.302 nM |  |  | 
CN1CC(S(=O)(=O)c2ccc(-c3cccc4[nH]c(N)nc34)c(-c3nn[nH]n3)c2S(N)(=O)=O)C1 [Example 52, 3-(2-amino-1H-benzo[d]imidazol-4-yl)-6-(1-methylazetidin-3-ylsulfonyl)-2-(2H-tetrazol-5-yl)benzenesulfonamide] |  |  |  | 6.25 µM | 4.00 | 0.628 nM | 1.563 µM | 0.222 nM | 1.33 nM | 3.125 µM | 0.3906 µM | 1.563 µM
